Test results as given in patent US7202239B2, “Cyclohexylphenyl carboxamides tocolytic oxytocin receptor antagonists” (Wyeth, priority 2001, dated 2007).

How the values were obtained:
[1] = target: T1, human oxytocin receptor (Homo sapiens, UniProt P30559); test: Oxytocin binding in CHO cell membranes expressing human oxytocin receptors; details: [3H]oxytocin; for inhibition at 0.1 µM: 100 nM, read-out: OT % inhibition at 100 nM; for IC50: value in parentheses, read-out: OT (IC50)
T1 sequence (P30559 1-389): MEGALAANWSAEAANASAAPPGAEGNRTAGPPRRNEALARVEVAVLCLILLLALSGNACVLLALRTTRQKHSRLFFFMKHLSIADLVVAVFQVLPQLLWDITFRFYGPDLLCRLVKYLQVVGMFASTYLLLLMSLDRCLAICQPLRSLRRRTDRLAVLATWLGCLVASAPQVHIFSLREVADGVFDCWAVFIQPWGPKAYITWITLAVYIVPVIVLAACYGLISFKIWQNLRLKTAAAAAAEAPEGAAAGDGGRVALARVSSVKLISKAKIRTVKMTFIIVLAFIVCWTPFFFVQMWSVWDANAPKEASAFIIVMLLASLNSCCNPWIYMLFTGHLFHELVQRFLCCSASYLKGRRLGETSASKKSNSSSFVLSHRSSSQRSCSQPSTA
From the text: Oxytocin Binding in Chinese Hamster Ovary Cell Membranes Expressing Human Oxytocin Receptors
Chinese Hamster Ovary (CHO) cells stably transfected with the human oxytocin receptor (cf. Tanizawa et al., U.S. Pat. No. 5,466,584 (1995) to Rohto Pharmaceutical Co. Ltd., Osaka, Japan) were obtained from M. Thibonnier, Case Western Reserve University School of Medicine, Cleveland, Ohio. A. Passaging and Amplification of Cells: CHO cells transfected with the human oxytocin receptors obtained from M. Thibonnier (pcDNA3.1 vector) are allowed to grow to confluency (approx. >90%) in T-150 flasks under sterile conditions, in a cell culture medium of F-12 Nutrient Mixture (HAM) with L-glutamine (Gibco Cat. # 11765-054) containing 15 mM HEPES (Gibco Cat. # 15630-080), 1% antibiotic/antimycotic (add 5 mL 100×, Gibco Cat. # 15240-062 per 500 mL F-12), 400 μg/mL of Geneticin (add 4 mL of 50 mg/mL per 500 mL F-12) and 10% Fetal Bovine Serum (Qualified, heat inactivated, Gibco Cat. # 16140-063). The medium is removed by aspiration and the cells are washed with 10 mL of Hank's Balanced Salt solution (Gibco Cat. # 14175-095). The salt solution is removed by aspiration and the cells trypsinized with 5 mL of trypsin-EDTA (0.05% trypsin, 0.53 mM EDTA-4Na, Gibco Cat. # 25300-070) for 1 min The trypsin is removed by aspiration and the cells dislodged by tapping. Cell Culture medium (e.g. 30 mL for 1:30 split) is immediately added and mixed well to inactivate trypsin. 1 mL of detached cells is added to new culture flasks containing fresh Cell Culture medium (e.g. into 25 mL per T-150 flask), and mixed gently. The cells are incubated at 37° C. in 5% CO2. The medium is changed at 3 to 4 days interval (or as appropriate). The cells grow to confluency (approx. >75%–95%) within 7–8 days. All steps are done under sterile conditions. B. Membrane Preparation: The cells are washed twice gently with Hank's Balanced Salt solution (eg, use 10 mL per T-150 flask). The excess solution is removed and the cells bathed for 15–30 min. in an enzyme-free Cell Dissociation Buffer (eg, use 8 mL Hank's Based, Gibco Cat. # 13150-016 per T-150 flask) until cells are loosened. The contents are transferred to centrifuge tubes (50 mL size) kept in ice bath. All subsequent steps are done at 4° C. The tubes are centrifuged at 300×g for 15 min (1380 rpm on SORVAL, Model RT6000D, using rotor for 50 mL tubes). The supernatant is discarded and the cells suspended in homogenizing buffer (10 mM Tris-HCl containing 0.25 M sucrose and 1 mM EDTA, pH 7.4) ensuring that the volume of the buffer is about ten times the volume of the cell pellet. The cells are pooled into a centrifuge tube (50 mL) and homogenized with a Polytron at setting 6 for 10 sec. The homogenate is transferred into a Potter-Elvjehm homogenizer and homogenized with 3 strokes. The homogenate is centrifuged at 1500×g for 10 min at 4° C. (3100 rpm using SORVAL, model RT6000D, using rotor for 50 mL tubes). The pellet is discarded. The supernatant is centrifuged at 100,000×g for 60 min. at 4° C. (Beckman L8-80M ultracentrifuge; spin at 37,500 rpm with rotor type 70 Ti for 50 mL tubes; 38,000 rpm with type 80Ti for 15 mL tubes; or 35,800 rpm with rotor type 45Ti). The supernantant is discarded and the pellet suspended in 3 to 4 mL of Tris buffer (50 mM TRIS-HCl, pH 7.4). The protein content is estimated by the Bradford or Lowry method. The volume of the membrane suspension is adjusted with the membrane buffer (50 mM Tris-HCl containing 0.1% BSA and 0.1 mM PMSF) to give 3.0 mg/mL (or as appropriate) of protein. The membranes are aliquoted and stored at −70° C. C. Radioligand Binding Assay: In wells of a 96-well format microtiter plate, is added 90, 110 or 130 μL (to make up a final volume of 200 μL) of assay buffer containing 50 mM of Tris-HCl (pH 7.4), […], 1 mg % aprotinin, 1 mg % leupeptin, 2 mg % 1,10-phenanthroline, 10 mg % trypsin inhibitor, and 0.1 mM PMSF. […]

| SMILES | inhibition at 0.1 µM [1] [%] | melting point | IC50 [1] [nM] |
| --- | --- | --- | --- |
| COC(=O)c1ccc2c(c1)N(C(=O)c1ccc(C3CCCCC3)cc1)Cc1ccc(C(=O)N3CCN(C)CC3)n1C2.Cl [Example 1, Methyl 10-(4-cyclohexylbenzoyl)-3-[(4-methyl-1-piperazinyl)carbonyl]-10,11-dihydro-5H-pyrrolo[2,1-c][1,4]benzodiazepine-8-carboxylate hydrochloride salt] | 14 | 203 °C (dec.) | – |
| CN1CCN(C(=O)c2ccc3n2Cc2ccc(C(=O)O)cc2N(C(=O)c2ccc(C4CCCCC4)cc2)C3)CC1 [Example 3, 10-(4-Cyclohexyl-benzoyl)-3-[(4-methyl-1-piperazinyl)carbonyl]-10,11-dihydro-5H-pyrrolo[2,1-c][1,4]benzodiazepine-8-carboxylic acid] | -2 | 195 to 210 °C | – |
| CC(C)(C)c1ccc(C(=O)c2ccc3n2Cc2ccccc2N(C(=O)c2ccc(C4CCCCC4)cc2)C3)cc1 [Example 5, [4-(tert-Butyl)phenyl][10-(4-cyclohexyl-benzoyl)-10,11-dihydro-5H-pyrrolo[2,1-c][1,4]benzodiazepin-3-yl]methanone] | 46 | 143 to 145 °C | – |
| O=C(c1ccc(C2CCCCC2)cc1)N1Cc2ccc(C(=O)C(Cl)(Cl)Cl)n2Cc2ccccc21 [Example 7, 2,2,2-Trichloro-1-[10-(4-cyclohexyl-benzoyl)-10,11-dihydro-5H-pyrrolo[2,1-c][1,4]benzodiazepin-3-yl]-1-ethanone] | 12 | 172 to 174 °C | – |
| CC(=NNC(=O)c1ccc2n1Cc1ccccc1N(C(=O)c1ccc(C3CCCCC3)cc1)C2)N(C)C [Example 9, N′-{[10-(4-Cyclohexyl-benzoyl)-10,11-dihydro-5H-pyrrolo[2,1-c][1,4]benzodiazepin-3-yl]carbonyl}-N,N-dimethylethanehydrazonamide] | – | 164 to 175 °C | 35.4 |
| NC(=O)c1ccc2n1Cc1ccccc1N(C(=O)c1ccc(C3CCCCC3)cc1)C2 [Example 16, 10-(4-Cyclohexyl-benzoyl)-10,11-dihydro-5H-pyrrolo[2,1-c][1,4]benzodiazepin-3-carboxamide] | – | 122 to 123 °C | 133 |
| CN(C)/C=N/C(=O)c1ccc2n1Cc1ccccc1N(C(=O)c1ccc(C3CCCCC3)cc1)C2 [Example 17] | – | 216 to 218 °C | 51.4 |
| C/C(=N\C(=O)c1ccc2n1Cc1ccccc1N(C(=O)c1ccc(C3CCCCC3)cc1)C2)N(C)C [Example 18] | – | 128 to 131 °C | 4.36 |
| CN(C)NC(=O)c1ccc2n1Cc1ccccc1N(C(=O)c1ccc(C3CCCCC3)cc1)C2 [Example 19, 10-(4-Cyclohexyl-benzoyl)-N′-N′-dimethyl-10,11-dihydro-5H-pyrrolo[2,1-c][1,4]benzodiazepine-3-carbohydrazide] | – | 182 to 183 °C | 130 |
| CN1CCN(C(=O)c2ccc3n2Cc2ccccc2N(C(=O)c2ccc(C4CCCCC4)cc2)C3)CC1 [Example 24, [10-(4-Cyclohexyl-benzoyl)-10,11-dihydro-5H-pyrrolo[2,1-c][1,4]benzodiazepin-3-yl](4-methyl-1-piperazinyl)-methanone] | – | 134 to 136 °C | 18.3 |
| CN1CCCN(C(=O)c2ccc3n2Cc2ccccc2N(C(=O)c2ccc(C4CCCCC4)cc2)C3)CC1 [Example 30, [10-(4-Cyclohexyl-benzoyl)-10,11-dihydro-5H-pyrrolo[2,1-c][1,4]benzodiazepin-3-yl](4-methyl-[1,4]-diazepan-1-yl)-methanone] | 94 | 133 to 136 °C | – |

The remaining lines, values ahead:

| inhibition at 0.1 µM [1] [%] | melting point | IC50 [1] [nM] | SMILES |
| --- | --- | --- | --- |
| – | 167 to 190 °C | 75.7 | CN(C)C=NNC(=O)c1ccc2n1Cc1ccccc1N(C(=O)c1ccc(C3CCCCC3)cc1)C2 [Example 10, N′-{[10-(4-Cyclohexyl-benzoyl)-10,11-dihydro-5H-pyrrolo[2,1-c][1.4]benzodiazepin-3-yl]carbonyl}-N,N-dimethylhydrazonoformamide] |
| 43 | 237 to 240 °C | – | CN(C)/C=C/C(=O)c1ccc2n1Cc1ccccc1N(C(=O)c1ccc(C3CCCCC3)cc1)C2 [Example 20, (E)-1-[10-(4-Cyclohexyl-benzoyl)-10,11-dihydro-5H-pyrrolo[2,1-c][1,4]benzodiazepin-3-yl]-3-(dimethylamino)-2-propen-1-one] |
| 44 | 141 to 143 °C | – | Cc1ccccc1N1CCN(C(=O)c2ccc3n2Cc2ccccc2N(C(=O)c2ccc(C4CCCCC4)cc2)C3)CC1 [Example 27, [10-(4-Cyclohexyl-benzoyl)-10,11-dihydro-5H-pyrrolo[2,1-c][1,4]benzodiazepin-3-yl][4-(2-methylphenyl)-1-piperazinyl]-methanone] |
| 61 | – | – | O=C(c1ccc(C2CCCCC2)cc1)N1Cc2ccc(C(=O)n3ccnc3)n2Cc2ccccc21 [Example 56, 1H-Imidazol-1-yl-[10-(4-cyclohexyl-benzoyl)-10,11-dihydro-5H-pyrrolo[2,1-c][1,4]benzodiazepin-3-yl]-methanone] |
| -4 | – | – | CN(Cc1cccnc1)C(=O)c1ccc2n1Cc1ccccc1N(C(=O)c1ccc(C3CCCCC3)cc1)C2 [Example 57, 10-(4-Cyclohexyl-benzoyl)-N-methyl-N-(3-pyridinylmethyl)-10,11-dihydro-5H-pyrrolo[2,1-c][1,4]benzodiazepine-3-carboxamide] |
